Assay results reported in PubChem BioAssay AID2060620 (Molecular Pharmacology Branch, DTP, NCI, 2025).

System: 328373-195-R-J1-PDC complex spheroids, viability % test/control
Assay: Anticancer human tumor 328373-195-R-J1-PDC patient-derived head and neck squamous carcinoma cell line growth inhibition [CLK]
Conditions: for IC50: curve of first compound; for viability, T/C: stronger effect = lower value
Outline: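 Multi-cell-type spheroids combined patient-derived tumor cells with HUVEC endothelial cells and human mesenchymal stem cells. Paired agents were dosed in half-log steps down from about clinical Cmax, or from 10 microM where Cmax was unknown.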

[1] = second compound 0.0316 µM, first compound 0.00949 µM
[2] = second compound 0.0316 µM, first compound 0.03 µM
[3] = second compound 0.0316 µM, first compound 0.0949 µM
[4] = second compound 0.0316 µM, first compound 0.3 µM
[5] = second compound 0.1 µM, first compound 0.00949 µM
[6] = second compound 0.1 µM, first compound 0.03 µM
[7] = second compound 0.1 µM, first compound 0.0949 µM
[8] = second compound 0.1 µM, first compound 0.3 µM
[9] = second compound 0.316 µM, first compound 0.00949 µM
[10] = second compound 0.316 µM, first compound 0.03 µM
[11] = second compound 0.316 µM, first compound 0.0949 µM
[12] = second compound 0.316 µM, first compound 0.3 µM
[13] = second compound 1 µM, first compound 0.00949 µM
[14] = second compound 1 µM, first compound 0.03 µM
[15] = second compound 1 µM, first compound 0.0949 µM
[16] = second compound 1 µM, first compound 0.3 µM
[17] = second compound 3.16 µM, first compound 0.00949 µM
[18] = second compound 3.16 µM, first compound 0.03 µM
[19] = second compound 3.16 µM, first compound 0.0949 µM
[20] = second compound 3.16 µM, first compound 0.3 µM
[21] = second compound 10 µM, first compound 0.00949 µM
[22] = second compound 10 µM, first compound 0.03 µM
[23] = second compound 10 µM, first compound 0.0949 µM
[24] = second compound 10 µM, first compound 0.3 µM
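Further: spheroids exposed to the agents for 7 days.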

C=CC(=O)Nc1cc(Nc2nccc(-c3cn(C)c4ccccc34)n2)c(OC)cc1N(C)CCN(C)C + CNC(=O)c1ccc(Nc2nc(OC3CCCC3)c3c(-c4ccc5nc(C)oc5c4)c[nH]c3n2)c(OC)c1
IC50 (second compound 0.0316 µM): 39.4 nM | IC50 (second compound 0.1 µM): < 0.949 nM | IC50 (second compound 0.316 µM): < 0.949 nM | IC50 (second compound 1 µM): < 0.949 nM | IC50 (second compound 3.16 µM): < 0.949 nM | IC50 (second compound 10 µM): < 0.949 nM | viability, T/C (second compound 0.0316 µM, first compound 0.000949 µM): 53.9% | viability, T/C (second compound 0.0316 µM, first compound 0.003 µM): 60.2% | viability, T/C [1]: 57.1% | viability, T/C [2]: 50.1% | viability, T/C [3]: 44% | viability, T/C [4]: 28.7% | viability, T/C (second compound 0.1 µM, first compound 0.000949 µM): 12.7% | viability, T/C (second compound 0.1 µM, first compound 0.003 µM): 11.5% | viability, T/C [5]: 10% | viability, T/C [6]: 10.6% | viability, T/C [7]: 6.8% | viability, T/C [8]: 4.77% | viability, T/C (second compound 0.316 µM, first compound 0.000949 µM): 10.9% | viability, T/C (second compound 0.316 µM, first compound 0.003 µM): 9.46% | viability, T/C [9]: 9.6% | viability, T/C [10]: 11.1% | viability, T/C [11]: 7.49% | viability, T/C [12]: 5.37% | viability, T/C (second compound 1 µM, first compound 0.000949 µM): 9.22% | viability, T/C (second compound 1 µM, first compound 0.003 µM): 11.8% | viability, T/C [13]: 9.93% | viability, T/C [14]: 9.14% | viability, T/C [15]: 7.31% | viability, T/C [16]: 3.84% | viability, T/C (second compound 3.16 µM, first compound 0.000949 µM): 10.8% | viability, T/C (second compound 3.16 µM, first compound 0.003 µM): 9.2% | viability, T/C [17]: 10.8% | viability, T/C [18]: 10.1% | viability, T/C [19]: 8.03% | viability, T/C [20]: 3.03% | viability, T/C (second compound 10 µM, first compound 0.000949 µM): 12% | viability, T/C (second compound 10 µM, first compound 0.003 µM): 10.6% | viability, T/C [21]: 11.6% | viability, T/C [22]: 11.5% | viability, T/C [23]: 9.82% | viability, T/C [24]: 3.85%

NC(=O)C(=Cn1cnc(-c2cc(C(F)(F)F)cc(C(F)(F)F)c2)n1)c1cncnc1 + CNC(=O)c1ccc(Nc2nc(OC3CCCC3)c3c(-c4ccc5nc(C)oc5c4)c[nH]c3n2)c(OC)c1
IC50 (second compound 0.0316 µM): < 9.49 nM | IC50 (second compound 0.1 µM): < 9.49 nM | IC50 (second compound 0.316 µM): < 9.49 nM | IC50 (second compound 1 µM): < 9.49 nM | IC50 (second compound 3.16 µM): < 9.49 nM | IC50 (second compound 10 µM): < 9.49 nM | viability, T/C [1]: 38.7% | viability, T/C [2]: 20.8% | viability, T/C [3]: 0.53% | viability, T/C [4]: 0.2% | viability, T/C (second compound 0.0316 µM, first compound 0.949 µM): 0.1% | viability, T/C (second compound 0.0316 µM, first compound 3 µM): 0.07% | viability, T/C [5]: 15.9% | viability, T/C [6]: 3.9% | viability, T/C [7]: 0.26% | viability, T/C [8]: 0.16% | viability, T/C (second compound 0.1 µM, first compound 0.949 µM): 0.11% | viability, T/C (second compound 0.1 µM, first compound 3 µM): 0.06% | viability, T/C [9]: 6.88% | viability, T/C [10]: 2.56% | viability, T/C [11]: 0.37% | viability, T/C [12]: 0.09% | viability, T/C (second compound 0.316 µM, first compound 0.949 µM): 0.1% | viability, T/C (second compound 0.316 µM, first compound 3 µM): 1.78% | viability, T/C [13]: 5.63% | viability, T/C [14]: 1.81% | viability, T/C [15]: 0.17% | viability, T/C [16]: 0.06% | viability, T/C (second compound 1 µM, first compound 0.949 µM): 0.08% | viability, T/C (second compound 1 µM, first compound 3 µM): 0.06% | viability, T/C [17]: 5.68% | viability, T/C [18]: 1.86% | viability, T/C [19]: 0.15% | viability, T/C [20]: 0.15% | viability, T/C (second compound 3.16 µM, first compound 0.949 µM): 1.8% | viability, T/C (second compound 3.16 µM, first compound 3 µM): 0.15% | viability, T/C [21]: 5.83% | viability, T/C [22]: 2.16% | viability, T/C [23]: 0.18% | viability, T/C [24]: 0.11% | viability, T/C (second compound 10 µM, first compound 0.949 µM): 0.18% | viability, T/C (second compound 10 µM, first compound 3 µM): 0.15%

Nc1ccccc1NC(=O)c1ccc(CNC(=O)OCc2cccnc2)cc1 + CNC(=O)c1ccc(Nc2nc(OC3CCCC3)c3c(-c4ccc5nc(C)oc5c4)c[nH]c3n2)c(OC)c1
IC50 (second compound 0.0316 µM): 55 nM | IC50 (second compound 0.1 µM): < 31.6 nM | IC50 (second compound 0.316 µM): < 31.6 nM | IC50 (second compound 1 µM): < 31.6 nM | IC50 (second compound 3.16 µM): < 31.6 nM | IC50 (second compound 10 µM): < 31.6 nM | viability, T/C (second compound 0.0316 µM, first compound 0.0316 µM): 54.2% | viability, T/C (second compound 0.0316 µM, first compound 0.1 µM): 46.5% | viability, T/C (second compound 0.0316 µM, first compound 0.316 µM): 35.2% | viability, T/C (second compound 0.0316 µM, first compound 1 µM): 23.1% | viability, T/C (second compound 0.0316 µM, first compound 3.16 µM): 19.5% | viability, T/C (second compound 0.0316 µM, first compound 10 µM): 4.85% | viability, T/C (second compound 0.1 µM, first compound 0.0316 µM): 12.5% | viability, T/C (second compound 0.1 µM, first compound 0.1 µM): 11.8% | viability, T/C (second compound 0.1 µM, first compound 0.316 µM): 10.5% | viability, T/C (second compound 0.1 µM, first compound 1 µM): 12.9% | viability, T/C (second compound 0.1 µM, first compound 3.16 µM): 13.8% | viability, T/C (second compound 0.1 µM, first compound 10 µM): 4.28% | viability, T/C (second compound 0.316 µM, first compound 0.0316 µM): 9.94% | viability, T/C (second compound 0.316 µM, first compound 0.1 µM): 9.86% | viability, T/C (second compound 0.316 µM, first compound 0.316 µM): 8.75% | viability, T/C (second compound 0.316 µM, first compound 1 µM): 9.9% | viability, T/C (second compound 0.316 µM, first compound 3.16 µM): 15.7% | viability, T/C (second compound 0.316 µM, first compound 10 µM): 4.12% | viability, T/C (second compound 1 µM, first compound 0.0316 µM): 9.33% | viability, T/C (second compound 1 µM, first compound 0.1 µM): 7.31% | viability, T/C (second compound 1 µM, first compound 0.316 µM): 9.56% | viability, T/C (second compound 1 µM, first compound 1 µM): 11.4% | viability, T/C (second compound 1 µM, first compound 3.16 µM): 14.1% | viability, T/C (second compound 1 µM, first compound 10 µM): 3.25% | viability, T/C (second compound 3.16 µM, first compound 0.0316 µM): 9.23% | viability, T/C (second compound 3.16 µM, first compound 0.1 µM): 8.04% | viability, T/C (second compound 3.16 µM, first compound 0.316 µM): 10.8% | viability, T/C (second compound 3.16 µM, first compound 1 µM): 10.7% | viability, T/C (second compound 3.16 µM, first compound 3.16 µM): 15.6% | viability, T/C (second compound 3.16 µM, first compound 10 µM): 3.34% | viability, T/C (second compound 10 µM, first compound 0.0316 µM): 12.2% | viability, T/C (second compound 10 µM, first compound 0.1 µM): 9.96% | viability, T/C (second compound 10 µM, first compound 0.316 µM): 10.2% | viability, T/C (second compound 10 µM, first compound 1 µM): 12.4% | viability, T/C (second compound 10 µM, first compound 3.16 µM): 15.5% | viability, T/C (second compound 10 µM, first compound 10 µM): 3.38%
